Triple point temperature data for 1 molecule are collected here from the NIST ThermoML archive (doi:10.1016/j.tca.2015.07.010).

Molecules are shown by their SMILES. Numbers after ± are expanded uncertainties.

Regarding `O=NN1CN(N=O)CN(N=O)C1` [1,3,5-trinitroso-1,3,5-triazacyclohexane], the Triple point temperature runs as follows: (Crystal 1) 380.15 ± 2 K; (Crystal 2) 369.25 ± 2 K.
